Drawing on US10851082B2, “Substituted aromatic n-heterocyclic compounds as inhibitors of mitogen-activated protein kinase interacting kinase 1 (MNK1) and 2 (MNK2)” (Northwestern University, priority 2015, dated 2020), this text covers IC50 for 52 molecules.

Where two headings read alike, the source gives them in different places.

In assay [1] the target is Mnk1 (Homo sapiens (Human), UniProt Q9BUB5). Put plainly: Mnk1 kinase inhibition, ADP-Glo ADP monitoring assay. Type of assay: biochemical. Background: In ADP-Glo the light output rises with the ADP produced.
Mnk1 (Homo sapiens (Human), UniProt Q9BUB5), sequence (Q9BUB5 whole entry): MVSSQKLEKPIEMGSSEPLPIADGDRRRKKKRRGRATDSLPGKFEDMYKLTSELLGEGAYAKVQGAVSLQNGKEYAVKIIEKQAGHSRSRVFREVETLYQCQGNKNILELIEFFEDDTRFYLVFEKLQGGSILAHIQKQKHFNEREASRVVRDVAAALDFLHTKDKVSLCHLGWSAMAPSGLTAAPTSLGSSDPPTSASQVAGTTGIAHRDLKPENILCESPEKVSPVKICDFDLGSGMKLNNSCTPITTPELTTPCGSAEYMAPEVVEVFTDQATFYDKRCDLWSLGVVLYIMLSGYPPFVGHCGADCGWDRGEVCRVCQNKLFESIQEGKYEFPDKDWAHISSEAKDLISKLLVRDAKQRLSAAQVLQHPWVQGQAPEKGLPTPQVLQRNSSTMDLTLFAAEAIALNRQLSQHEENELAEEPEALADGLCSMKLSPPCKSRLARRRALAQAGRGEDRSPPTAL
Method: (§1) The synthesized compounds then were tested for inhibition of the kinase activity (IC50) of Mnk1 and/or Mnk2 using the ADP monitoring assay for kinases described in Zegzouti, H.; Zdanovskaia, M.; Hsiao, K.; Goueli, S. A., ADP-Glo: A Bioluminescent and homogeneous ADP monitoring assay for kinases.
Another assay addresses Mnk2 (Homo sapiens (Human), UniProt Q9HBH9). Put plainly: Mnk2 kinase inhibition, ADP-Glo ADP monitoring assay. Type of assay: biochemical.
Assay [2] deals with Mnk1. The experiment in a line: Cellular inhibition of Mnk1, flow cytometry of phospho-eIF-4E (Ser209), MV4-11 cells. Type of assay: cell-based. The following applies: read-out: MV4-11 pEIF4E cellular flow IC50 (+,++,+++), flow cytometry. In general terms: In flow cytometry, cells or beads pass a laser one at a time.
Method: To evaluate inhibition of Mnk1 in cells, we utilized a flow cytometry-based assay based on activation of eIF-4E, the downstream target of Mnk1. The assay utilizes flow cytometry to quantitatively measure the amount of eIF-4E that is phosphorylated at residue Ser209 in cell lysate from U937 or MV4-11 cell lines. Cells grown in the presence of serum were treated with vehicle or test compounds across a range of concentrations. Levels of phospho-eIF-4E were measured and IC50 values were determined by logistic regression to quantify the potency of each compound.
Setting [3] is: read-out: Mnk1 inhibition IC50 (+,++,+++).
Where [4] appears, read: ADP-Glo kinase assay, read-out: Mnk2 inhibition IC50 (+,++,+++).

Mnk2, sequence (Q9HBH9 whole entry): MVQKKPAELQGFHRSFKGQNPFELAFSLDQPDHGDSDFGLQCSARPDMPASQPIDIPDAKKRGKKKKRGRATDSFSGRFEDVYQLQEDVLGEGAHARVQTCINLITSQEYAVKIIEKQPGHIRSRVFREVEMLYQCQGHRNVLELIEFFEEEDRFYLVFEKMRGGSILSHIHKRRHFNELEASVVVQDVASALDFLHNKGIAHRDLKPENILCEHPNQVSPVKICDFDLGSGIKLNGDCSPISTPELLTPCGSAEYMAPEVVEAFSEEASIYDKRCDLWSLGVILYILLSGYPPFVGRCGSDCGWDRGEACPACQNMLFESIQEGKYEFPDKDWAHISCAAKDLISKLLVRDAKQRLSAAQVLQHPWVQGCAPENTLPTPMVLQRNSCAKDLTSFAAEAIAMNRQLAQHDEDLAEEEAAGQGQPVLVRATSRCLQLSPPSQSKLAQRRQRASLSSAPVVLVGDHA
Method for Mnk2: as §1

One may read the IC50 as the concentration at which inhibition is half-maximal. Consider `Clc1cnc(OCCc2ccncc2)nc1-n1cnc2ccccc21` [NUCC-0196254, 1-(5-chloro-2-(2-(pyridin-4-yl)ethoxy)pyrimidin-4-yl)-1H-benzo[d]imidazole], for which the IC50 on Mnk1 [1] (setting [3]) is below 1000 nM; on Mnk1 [1] (unit inferred, read-out: Mnk1 IC50), 54 nM; at Mnk2 (setting [4]), below 1000 nM; on Mnk2 (ADP-Glo kinase assay, unit inferred, read-out: Mnk2 IC50), 9.6 nM; at Mnk1 [2], below 1000 nM.
As to `Clc1cnc(NC2CCN(c3nccn4ccnc34)C2)nc1-n1cnc2ccccc21` (centres unmarked) [NUCC-0201015], the IC50 at Mnk1 [1] (setting [3]) and on Mnk2 was 1000 to 10000 nM in each case.
In the case of `Cc1nc2ccccc2n1-c1nc(OC2CC(N(C)C)C2)ncc1Cl` (centres unmarked) [NUCC-0201016, 3-((5-chloro-4-(2-methyl-1H-benzo[d]imidazol-1-yl)pyrimidin-2-yl)oxy)-N,N-dimethylcyclobutanamine], the IC50 on Mnk1 [1] (setting [3]) and at Mnk2 was 1000 to 10000 nM each time.
As to `CC1(C)COC(=O)C1Oc1ncc(Cl)c(-n2cnc3ccccc32)n1` (centres unmarked) [NUCC-0201017], the IC50 at Mnk1 [1] (setting [3]) and on Mnk2 (setting [4]) was below 1000 nM in each case.
In the case of `CC1=C(Oc2ncc(Cl)c(-n3cnc4ccccc43)n2)C(=O)C(C)O1` (centres unmarked) [NUCC-0201018], the IC50 on Mnk1 [1] (setting [3]) and against Mnk2 was 1000 to 10000 nM each time.
For `CC1=C(Oc2ncc(Cl)c(-n3cnc4ccccc43)n2)C(=O)CO1` [NUCC-0201019], the IC50 at Mnk1 [1] (setting [3]) and against Mnk2 was 1000 to 10000 nM throughout.
In the case of `FC(F)(F)c1cc(Cl)c2ncn(-c3nc(OCCc4ccccn4)ncc3Cl)c2c1` [NUCC-0201020], the IC50 on Mnk1 [1] (setting [3]) and on Mnk2 was 1000 to 10000 nM throughout.
Regarding `Clc1cccc(CCOc2ncc(Cl)c(-n3cnc4ccccc43)n2)n1` [NUCC-0201021], the IC50 on Mnk1 [1] (setting [3]) and on Mnk2 (setting [4]) was below 1000 nM in each case.
For the molecule `Clc1cc(Cl)nc(CCOc2ncc(Cl)c(-n3cnc4ccccc43)n2)c1` [NUCC-0201022], the IC50 on Mnk1 [1] (setting [3]) and on Mnk2 was 1000 to 10000 nM in each case.
`Fc1cc(CCOc2ncc(Cl)c(-n3cnc4ccccc43)n2)ccn1` [NUCC-0201046, 1-(5-chloro-2-(2-(2-fluoropyridin-4-yl)ethoxy)pyrimidin-4-yl)-1H-benzo[d]imidazole]: the IC50 at Mnk1 [1] (setting [3]) and on Mnk2 (setting [4]) was below 1000 nM in each case.
As to `N[C@H]1C[C@@H](Oc2ncc(Cl)c(-n3cnc4ccccc43)n2)C1` [NUCC-0201047], the IC50 at Mnk1 [1] (setting [3]) and at Mnk2 (setting [4]) was below 1000 nM each time.
As for `Clc1cnc(OC2CCC2)nc1-n1cnc2ccccc21` [NUCC-0201048], the IC50 at Mnk1 [1] (setting [3]) and on Mnk2 (setting [4]) was below 1000 nM each time.
In the case of `Clc1cnc(NC2CCC2)nc1-n1cnc2ccccc21` [NUCC-0201050], the IC50 at Mnk1 [1] (setting [3]) and against Mnk2 was 1000 to 10000 nM throughout.
Consider `O=C1CCN(c2ncc(Cl)c(-n3cnc4ccccc43)n2)C1` [NUCC-0201051], for which the IC50 at Mnk1 [1] (setting [3]) and against Mnk2 was 1000 to 10000 nM each time.
For `N[C@H]1C[C@H](Oc2ncc(Cl)c(-n3cnc4ccccc43)n2)C1` [NUCC-0201052], the IC50 at Mnk1 [1] (setting [3]) and at Mnk2 (setting [4]) was below 1000 nM throughout.
Regarding `Clc1cnc(NC2C3CC2C3)nc1-n1cnc2ccccc21` (centres unmarked) [NUCC-0201136], the IC50 on Mnk1 [1] (setting [3]) and on Mnk2 was 1000 to 10000 nM each time.
In the case of `N#Cc1cnc(NC2C3CC2C3)nc1-n1cnc2ccccc21` (centres unmarked) [NUCC-0201137, 4-(1H-benzo[d]imidazol-1-yl)-2-(bicyclo[1.1.1]pentan-2-ylamino)pyrimidine-5-carbonitrile], the IC50 at Mnk1 [1] (setting [3]) and on Mnk2 (setting [4]) was below 1000 nM in each case.
For `N#Cc1cn(-c2nc(OC3CC(N)C3)ncc2Cl)cn1` (centres unmarked) [NUCC-0201246], the IC50 on Mnk1 [1] (setting [3]) and against Mnk2 was 1000 to 10000 nM each time.
On to `NC1CC(Oc2ncc(Cl)c(-n3cnc(-c4ccc(Cl)c(C(F)(F)F)c4)c3)n2)C1` (centres unmarked) [NUCC-0201247, 3-((5-chloro-4-(4-(4-chloro-3-(trifluoromethyl)phenyl)-1H-imidazol-1-yl)pyrimidin-2-yl)oxy)cyclobutanamine], for which the IC50 on Mnk1 [1] (setting [3]) and against Mnk2 was 1000 to 10000 nM each time.
Regarding `N#Cc1cnc(OC2CC(N)C2)nc1-n1cnc(-c2ccc(Cl)c(Cl)c2)c1` (centres unmarked) [NUCC-0201248], the 50% inhibitory concentration (IC50) on Mnk1 [1] (setting [3]) is 1000 to 10000 nM; at Mnk2 (setting [4]) it was below 1000 nM.
On the same counts, the results for `CC(C)(COc1ncc(Cl)c(-n2cnc3ccccc32)n1)c1ccncc1` [NUCC-0201593, 1-(5-chloro-2-(2-methyl-2-(pyridin-4-yl)propoxy)pyrimidin-4-yl)-1H-benzo[d]imidazole] are 1000 to 10000 nM and below 1000 nM.
On to `Fc1ccc2c(ncn2-c2nc(OCCc3ccccn3)ncc2Cl)c1F` [NUCC-0201662], for which the IC50 at Mnk1 [1] (setting [3]) and on Mnk2 (setting [4]) was below 1000 nM each time.
With `NC1CC(Oc2ncc(C(F)(F)F)c(-n3cnc4ccccc43)n2)C1` (centres unmarked) [NUCC-0201663], the values for the IC50 on Mnk1 [1] (setting [3]) and on Mnk2 were below 1000 nM and 1000 to 10000 nM, respectively.
In the case of `NC1CC(Oc2ncc(Cl)c(-n3cnc(C(F)(F)F)c3)n2)C1` (centres unmarked) [NUCC-0201664], the IC50 on Mnk1 [1] (setting [3]) was below 1000 nM; against Mnk2 it was 1000 to 10000 nM.
On the same counts, the results for `Clc1cnc(CCc2ccccn2)nc1-n1cnc2ccccc21` [NUCC-0201706, 1-(5-chloro-2-(2-(pyridin-2-yl)ethyl)pyrimidin-4-yl)-1H-benzo[d]imidazole] are 1000 to 10000 nM and 1000 to 10000 nM.
Turning to `Fc1cnc(NC23CC(C2)C3)nc1-n1cnc2ccccc21` [NUCC-0201887], the IC50 on Mnk1 [1] (setting [3]) and at Mnk2 (setting [4]) was below 1000 nM throughout.
With `FC(F)(F)c1cnc(NC23CC(C2)C3)nc1-n1cnc2ccccc21` [NUCC-0201888], the IC50 at Mnk1 [1] (setting [3]) and at Mnk2 (setting [4]) was below 1000 nM in each case.
For the molecule `CCOC(=O)c1cnc(NC2CNC(=O)C2)nc1-n1cnc2ccccc21` (centres unmarked) [NUCC-0201889], the IC50 at Mnk1 [1] (setting [3]) and against Mnk2 was 1000 to 10000 nM each time.
For the molecule `O=C1CC(Nc2ncc(C(F)(F)F)c(-n3cnc4ccccc43)n2)CN1` (centres unmarked) [NUCC-0201890], the IC50 on Mnk1 [1] (setting [3]) and on Mnk2 (setting [4]) was below 1000 nM in each case.
With `O=C(O)C1CC(Oc2ncc(Cl)c(-n3cnc4ccccc43)n2)C1` (centres unmarked) [NUCC-0201891], the values for the IC50 on Mnk1 [1] (setting [3]) and at Mnk2 (setting [4]) were 1000 to 10000 nM and below 1000 nM, respectively.
On the same counts, the results for `Nc1ccc(CCOc2ncc(Cl)c(-n3cnc4ccccc43)n2)cc1` [NUCC-0201892] are below 1000 nM and below 1000 nM.
`NC1CC(Oc2ncc(Br)c(-n3cnc4ccccc43)n2)C1` (centres unmarked) [NUCC-0201893]: the IC50 on Mnk1 [1] (setting [3]) and on Mnk2 (setting [4]) was below 1000 nM throughout.
Turning to `NC1CC(Oc2nc(-n3cnc4ccccc43)c3ccccc3n2)C1` (centres unmarked) [NUCC-0201894], the IC50 on Mnk1 [1] (setting [3]) and at Mnk2 (setting [4]) was below 1000 nM each time.
As for `Brc1cnc(OC2CCNC2)nc1-n1cnc2ccccc21` (centres unmarked) [NUCC-0201895], the IC50 on Mnk1 [1] (setting [3]) and at Mnk2 (setting [4]) was below 1000 nM throughout.
With `c1ccc2c(c1)ncn2-c1ccnc(OC2CCNC2)n1` (centres unmarked) [NUCC-0201896], the IC50 on Mnk1 [1] (setting [3]) and on Mnk2 (setting [4]) was below 1000 nM throughout.
On to `FC(F)(F)c1cnc(OC2CCNC2)nc1-n1cnc2ccccc21` (centres unmarked) [NUCC-0201897], for which the IC50 at Mnk1 [1] (setting [3]) and on Mnk2 (setting [4]) was below 1000 nM throughout.
As to `NC(=O)c1cccc(-c2cnc(OC3CC(N)C3)nc2-n2cnc3ccccc32)c1` (centres unmarked) [NUCC-0201899], the IC50 at Mnk1 [1] (setting [3]) was 1000 to 10000 nM; on Mnk2 (setting [4]), below 1000 nM.
The matching figures for `NC1CC(Oc2ncc(C3CC3)c(-n3cnc4ccccc43)n2)C1` (centres unmarked) [NUCC-0201900]: below 1000 nM and below 1000 nM.
On the same counts, the results for `NC(=O)c1cccc(-c2cnc(OC3CCNC3)nc2-n2cnc3ccccc32)c1` (centres unmarked) [NUCC-0201901] are 1000 to 10000 nM and below 1000 nM.
The matching figures for `c1ccc2c(c1)ncn2-c1nc(OC2CCNC2)ncc1-c1ccsc1` (centres unmarked) [NUCC-0201902]: below 1000 nM and below 1000 nM.
In the case of `NC(=O)c1ccc(-c2cnc(OC3CCNC3)nc2-n2cnc3ccccc32)cc1` (centres unmarked) [NUCC-0201903], the IC50 on Mnk1 [1] (setting [3]) and at Mnk2 (setting [4]) was below 1000 nM throughout.
In the case of `N#Cc1cnc(NC2CNC(=O)C2)nc1-n1cnc2ccccc21` (centres unmarked) [NUCC-0201905], the IC50 on Mnk1 [1] (setting [3]) and at Mnk2 (setting [4]) was below 1000 nM each time.
For `Fc1cccc(CCOc2ncc(Cl)c(-n3cnc4ccccc43)n2)c1` [NUCC-0201906], the IC50 at Mnk1 [1] (setting [3]) and on Mnk2 (setting [4]) was below 1000 nM throughout.
Turning to `N#Cc1cnc(-n2cnc3ccccc32)nc1OCCc1ccnc(F)c1` [NUCC-0201907], the IC50 on Mnk1 [1] (setting [3]) and at Mnk2 (setting [4]) was below 1000 nM in each case.
`CC(C)(COc1nc(-n2cnc3ccccc32)ncc1C#N)c1ccnc(F)c1` [NUCC-0201908]: the IC50 at Mnk1 [1] (setting [3]) and against Mnk2 was 1000 to 10000 nM throughout.
As to `CC(C)(COc1ncc(Cl)c(-n2cnc3ccccc32)n1)c1ccnc(F)c1` [NUCC-0201914], the IC50 at Mnk1 [1] (setting [3]) and at Mnk2 (setting [4]) was below 1000 nM each time.
`NC1CC(Oc2nc(C3CC3)c(Cl)c(-n3cnc4ccccc43)n2)C1` (centres unmarked) [NUCC-0201915, 3-((4-(1H-benzo[d]imidazol-1-yl)-5-chloro-6-cyclopropylpyrimidin-2-yl)oxy)cyclobutanamine]: the IC50 on Mnk1 [1] (setting [3]) and at Mnk2 was 1000 to 10000 nM in each case.
In the case of `CCc1nc(OC2CC(N)C2)nc(-n2cnc3ccccc32)c1Cl` (centres unmarked) [NUCC-0201916], the IC50 on Mnk1 [1] (setting [3]) and at Mnk2 was 1000 to 10000 nM throughout.
Turning to `CC(C)(COc1ncc(C#N)c(-n2cnc3ccccc32)n1)c1ccnc(F)c1` [NUCC-0201917], the IC50 on Mnk1 [1] (setting [3]) and on Mnk2 (setting [4]) was below 1000 nM throughout.
Take `N#Cc1cnc(OCCc2ccnc(F)c2)nc1-n1cnc2ccccc21` [NUCC-0201918]: the IC50 on Mnk1 [1] (setting [3]) and at Mnk2 (setting [4]) was below 1000 nM throughout.
Consider `CC(C)(COc1ncc(Cl)c(OCC(C)(C)c2ccnc(F)c2)n1)c1ccnc(F)c1` [NUCC-0201919], for which the IC50 on Mnk1 [1] (setting [3]) and on Mnk2 was 1000 to 10000 nM in each case.
As for `CC(C)(COc1nc(-n2cnc3ccccc32)ncc1Cl)c1ccnc(F)c1` [NUCC-0201920], the IC50 at Mnk1 [1] (setting [3]) and at Mnk2 (setting [4]) was below 1000 nM throughout.
